According to patent publication US10626144B2, “Peptide derivatives and uses thereof” (Nosopharm, priority 2014, dated 2020):
Square brackets hold non-standard residues; d marks the D form. Peptide text beside a SMILES is read from it. * marks the point of attachment. ξ: configuration not given here. Phe(3,4-(OMe)2) = COc1ccc(C[C@H](N)C(=O)O)cc1OC; Phe(3-CONH2) = NC(=O)c1cccc(C[C@H](N)C(=O)O)c1; Oic(3aξ,7aξ) = O=C(O)[C@@H]1CC2CCCCC2N1; Pro(4R-NH2) = N[C@H]1CN[C@H](C(=O)O)C1; Dab(3S-OH) = NC[C@H](O)[C@H](N)C(=O)O; Phe(2-F) = N[C@@H](Cc1ccccc1F)C(=O)O; ΔZArg = N=C(N)NCC/C=C(\N)C(=O)O; aThr = C[C@H](O)[C@H](N)C(=O)O; dOrn = NCCC[C@@H](N)C(=O)O; Orn = NCCC[C@H](N)C(=O)O; Dab = NCC[C@H](N)C(=O)O; NH(CH2)5NH2 = NCCCCCN*; NH(CH2)4NH2 = NCCCCN*; ξAze = O=C(O)C1CCN1

Tests used:
Assay in all cases: MIC, broth microdilution (CLSI), reference strain
Conditions in all cases: CAMHB
[1] = system: Acinetobacter baumannii ATCC 19606
[2] = system: Staphylococcus aureus ATCC 13709
[3] = system: Escherichia coli ATCC 25922
[4] = system: Pseudomonas aeruginosa ATCC 27853

Compound | Ab: MIC Acinetobacter baumannii ATCC 19606 [1] | Sa: MIC Staphylococcus aureus ATCC 13709 [2] | Ec: MIC Escherichia coli ATCC 25922 [3] | Pa: MIC Pseudomonas aeruginosa ATCC 27853 [4]
C[C@H](NC(=O)[C@H](CCN)NC(=O)[C@@H](N)CCCN)C(=O)NCC(=O)N[C@H](CCCN)C(=O)N1CCC[C@H]1C(=O)N[C@@H](Cc1cnc[nH]1)C(=O)N[C@@H](CCCCN)C(=O)N/C(=C\CCNC(=N)N)C(=O)N[C@@H](CCCCN)C(=O)NCCCCN [14.16] (H-[Orn][Dab]AG[dOrn]PHK[ΔZArg]K-{NH(CH2)4NH2}) | − (>32 μg/mL) | ++ (≤8 μg/mL) | − (>32 μg/mL) | − (>32 μg/mL)
C[C@H](NC(=O)[C@H](CCN)NC(=O)[C@@H](N)CCCCN)C(=O)NCC(=O)N[C@H](CCCN)C(=O)N1C[C@H](N)C[C@H]1C(=O)N[C@@H](Cc1cnc[nH]1)C(=O)N[C@@H](CCCCN)C(=O)N/C(=C\CCNC(=N)N)C(=O)N[C@@H](CCCCN)C(=O)NCCCCN [14.17] (H-K[Dab]AG[dOrn][Pro(4R-NH2)]HK[ΔZArg]K-{NH(CH2)4NH2}) | − (>32 μg/mL) | ++ (≤8 μg/mL) | − (>32 μg/mL) | − (>32 μg/mL)
C[C@H](NC(=O)[C@H](CCN)NC(=O)[C@@H](N)CCCCN)C(=O)NCC(=O)N[C@H](CCCN)C(=O)N1CCC1C(=O)N[C@@H](Cc1cnc[nH]1)C(=O)N[C@@H](CCCCN)C(=O)N/C(=C\CCNC(=N)N)C(=O)N[C@@H](CCCCN)C(=O)NCCCCN (stereo partly drawn) [14.18] (H-K[Dab]AG[dOrn][ξAze]HK[ΔZArg]K-{NH(CH2)4NH2}) | − (>32 μg/mL) | ++ (≤8 μg/mL) | − (>32 μg/mL) | − (>32 μg/mL)
C[C@H](NC(=O)[C@H](CCN)NC(=O)[C@@H](N)CCCCN)C(=O)NCC(=O)N[C@H](CCCN)C(=O)N1C2CCCCC2C[C@H]1C(=O)N[C@@H](Cc1cnc[nH]1)C(=O)N[C@@H](CCCCN)C(=O)N/C(=C\CCNC(=N)N)C(=O)N[C@@H](CCCCN)C(=O)NCCCCN (stereo partly drawn) [14.19] (H-K[Dab]AG[dOrn][Oic(3aξ,7aξ)]HK[ΔZArg]K-{NH(CH2)4NH2}) | − (>32 μg/mL) | ++ (≤8 μg/mL) | − (>32 μg/mL) | − (>32 μg/mL)
C[C@H](NC(=O)[C@H](CCN)NC(=O)[C@@H](N)CCCCN)C(=O)NCC(=O)N[C@H](CCCN)C(=O)N1CCC[C@H]1C(=O)N[C@@H](Cc1cnc[nH]1)C(=O)N[C@@H](CCCCN)C(=O)N/C(=C\CCNC(=N)N)C(=O)NCCCCCN [14.20] (H-K[Dab]AG[dOrn]PHK[ΔZArg]-{NH(CH2)5NH2}) | − (>32 μg/mL) | + (≤32 μg/mL) | − (>32 μg/mL) | − (>32 μg/mL)
C[C@H](NC(=O)[C@H](CCN)NC(=O)[C@@H](N)CCCCN)C(=O)NCC(=O)N[C@H](CCCN)C(=O)N1CCC[C@H]1C(=O)N[C@@H](Cc1cnc[nH]1)C(=O)N[C@@H](CCCCN)C(=O)N/C(=C\CCNC(=N)N)C(=O)N[C@@H](CCCCN)C(=O)O [14.21] (H-K[Dab]AG[dOrn]PHK[ΔZArg]K-OH) | − (>32 μg/mL) | + (≤32 μg/mL) | − (>32 μg/mL) | − (>32 μg/mL)
C[C@H](NC(=O)[C@H](CCN)NC(=O)[C@H](N)CCCCN)C(=O)NCC(=O)N[C@H](CCCN)C(=O)N1CCC[C@H]1C(=O)N[C@@H](Cc1cnc[nH]1)C(=O)N[C@@H](CCCCN)C(=O)N/C(=C\CCNC(=N)N)C(=O)N[C@@H](CCCCN)C(=O)NCCCCN [14.22] (H-[dK][Dab]AG[dOrn]PHK[ΔZArg]K-{NH(CH2)4NH2}) | − (>32 μg/mL) | + (≤32 μg/mL) | − (>32 μg/mL) | − (>32 μg/mL)
C[C@H](NC(=O)/C(=C/CCNC(=N)N)NC(=O)[C@H](CCCCN)NC(=O)[C@H](Cc1cnc[nH]1)NC(=O)[C@@H]1CCCN1C(=O)[C@@H](CCCN)NC(=O)CNC(=O)[C@H](C)NC(=O)[C@H](CCN)NC(=O)[C@@H](N)CCCCN)C(=O)NCCCCN [14.23] (H-K[Dab]AG[dOrn]PHK[ΔZArg]A-{NH(CH2)4NH2}) | − (>32 μg/mL) | + (≤32 μg/mL) | − (>32 μg/mL) | − (>32 μg/mL)
C[C@H](NC(=O)[C@H](CCN)NC(=O)[C@@H](N)CCCCN)C(=O)NCC(=O)N[C@H](CCCN)C(=O)N1CCC[C@H]1C(=O)N[C@@H](Cc1cnc[nH]1)C(=O)N[C@@H](CCCCN)C(=O)N[C@H](CCCNC(=N)N)C(=O)N[C@@H](CCCCN)C(=O)NCCCCN [14.24] (H-K[Dab]AG[dOrn]PHK[dR]K-{NH(CH2)4NH2}) | − (>32 μg/mL) | + (≤32 μg/mL) | − (>32 μg/mL) | − (>32 μg/mL)
C[C@H](NC(=O)[C@H](CCN)NC(=O)[C@@H](N)CCN)C(=O)NCC(=O)N[C@H](CCCN)C(=O)N1CCC[C@H]1C(=O)N[C@@H](Cc1cnc[nH]1)C(=O)N[C@@H](CCCCN)C(=O)N/C(=C\CCNC(=N)N)C(=O)N[C@@H](CCCCN)C(=O)NCCCCN [14.25] (H-[Dab][Dab]AG[dOrn]PHK[ΔZArg]K-{NH(CH2)4NH2}) | − (>32 μg/mL) | + (≤32 μg/mL) | − (>32 μg/mL) | − (>32 μg/mL)
C[C@H](O)[C@H](NC(=O)[C@H](CCN)NC(=O)[C@@H](N)CCCCN)C(=O)NCC(=O)N[C@H](CCCN)C(=O)N1CCC[C@H]1C(=O)N[C@@H](Cc1cnc[nH]1)C(=O)N[C@@H](CCCCN)C(=O)N/C(=C\CCNC(=N)N)C(=O)N[C@@H](CCCCN)C(=O)NCCCCN [15.1] (H-K[Dab][aThr]G[dOrn]PHK[ΔZArg]K-{NH(CH2)4NH2}) | − (>32 μg/mL) | + (≤32 μg/mL) | − (>32 μg/mL) | − (>32 μg/mL)
C[C@@H](O)[C@H](NC(=O)[C@H](CCN)NC(=O)[C@@H](N)CCCCN)C(=O)NCC(=O)N[C@H](CCCN)C(=O)N1CCC[C@H]1C(=O)N[C@@H](Cc1cnc[nH]1)C(=O)N[C@@H](CCCCN)C(=O)N/C(=C\CCNC(=N)N)C(=O)N[C@@H](CCCCN)C(=O)NCCCCN [15.3] (H-K[Dab]TG[dOrn]PHK[ΔZArg]K-{NH(CH2)4NH2}) | − (>32 μg/mL) | ++ (≤8 μg/mL) | − (>32 μg/mL) | − (>32 μg/mL)
N=C(N)NCC/C=C(\NC(=O)[C@H](CCCCN)NC(=O)[C@H](Cc1cnc[nH]1)NC(=O)[C@@H]1CCCN1C(=O)[C@@H](CCCN)NC(=O)CNC(=O)[C@H](CO)NC(=O)[C@H](CCN)NC(=O)[C@@H](N)CCCCN)C(=O)N[C@@H](CCCCN)C(=O)NCCCCN [16.1] (H-K[Dab]SG[dOrn]PHK[ΔZArg]K-{NH(CH2)4NH2}) | − (>32 μg/mL) | ++ (≤8 μg/mL) | − (>32 μg/mL) | − (>32 μg/mL)

Second part, the compound after the results:

Ab: MIC Acinetobacter baumannii ATCC 19606 [1] | Sa: MIC Staphylococcus aureus ATCC 13709 [2] | Ec: MIC Escherichia coli ATCC 25922 [3] | Pa: MIC Pseudomonas aeruginosa ATCC 27853 [4] | Compound
− (>32 μg/mL) | ++ (≤8 μg/mL) | ++ (≤8 μg/mL) | − (>32 μg/mL) | N=C(N)NCC/C=C(\NC(=O)[C@H](CCCCN)NC(=O)[C@H](Cc1cnc[nH]1)NC(=O)[C@@H]1CCCN1C(=O)[C@@H](CCCN)NC(=O)CNC(=O)[C@H](CCN)NC(=O)[C@@H](NC(=O)[C@@H](N)CCCCN)[C@@H](O)CN)C(=O)O [21.2] (H-K[Dab(3S-OH)][Dab]G[dOrn]PHK[ΔZArg]-OH)
− (>32 μg/mL) | ++ (≤8 μg/mL) | − (>32 μg/mL) | − (>32 μg/mL) | CC(=O)NCC[C@H](NC(=O)[C@@H](NC(=O)[C@@H](N)CCCCN)[C@@H](O)CN)C(=O)NCC(=O)N[C@H](CCCN)C(=O)N1CCC[C@H]1C(=O)N[C@@H](Cc1cnc[nH]1)C(=O)N[C@@H](CCCCN)C(=O)N/C(=C\CCNC(=N)N)C(N)=O [21.3] (H-K[Dab(3S-OH)][Dab](Ac)G[dOrn]PHK[ΔZArg]-NH2)
− (>32 μg/mL) | ++ (≤8 μg/mL) | ++ (≤8 μg/mL) | − (>32 μg/mL) | N=C(N)NCC/C=C(\NC(=O)[C@H](CCCCN)NC(=O)[C@H](Cc1ccccc1F)NC(=O)[C@@H]1CCCN1C(=O)[C@@H](CCCN)NC(=O)CNC(=O)[C@H](CCN)NC(=O)[C@@H](NC(=O)[C@@H](N)CCCCN)[C@@H](O)CN)C(=O)O [21.4] (H-K[Dab(3S-OH)][Dab]G[dOrn]P[Phe(2-F)]K[ΔZArg]-OH)
− (>32 μg/mL) | ++ (≤8 μg/mL) | ++ (≤8 μg/mL) | − (>32 μg/mL) | COc1ccc(C[C@H](NC(=O)[C@@H]2CCCN2C(=O)[C@@H](CCCN)NC(=O)CNC(=O)[C@H](CCN)NC(=O)[C@@H](NC(=O)[C@@H](N)CCCCN)[C@@H](O)CN)C(=O)N[C@@H](CCCCN)C(=O)N/C(=C\CCNC(=N)N)C(=O)O)cc1OC [21.5] (H-K[Dab(3S-OH)][Dab]G[dOrn]P[Phe(3,4-(OMe)2)]K[ΔZArg]-OH)
− (>32 μg/mL) | ++ (≤8 μg/mL) | ++ (≤8 μg/mL) | − (>32 μg/mL) | N=C(N)NCC/C=C(\NC(=O)[C@H](CCCCN)NC(=O)[C@H](Cc1cccc(C(N)=O)c1)NC(=O)[C@@H]1CCCN1C(=O)[C@@H](CCCN)NC(=O)CNC(=O)[C@H](CCN)NC(=O)[C@@H](NC(=O)[C@@H](N)CCCCN)[C@@H](O)CN)C(=O)O [21.6] (H-K[Dab(3S-OH)][Dab]G[dOrn]P[Phe(3-CONH2)]K[ΔZArg]-OH)
